{
  "source": "paper PMC6095690",
  "about": "“Coalescing beneficial host and deleterious antiparasitic actions as an antischistosomal strategy” (eLife, 2018)",
  "key": {"[1]": {"tested_on": "adult S. mansoni male and female pairs", "experiment": "egg laying assay of worm pairs cultured ex vivo"}, "Sh.5HTR": {"biological_target": "Sh.5HTR (Schistosoma haematobium, UniProt A0A922S615)", "assay_type": "cell-based"}, "Sm.5HTRL [2]": {"biological_target": "T1, Sm.5HTRL (Schistosoma mansoni, UniProt A0A173FEI8)", "T1 sequence (A0A173FEI8 1-547)": "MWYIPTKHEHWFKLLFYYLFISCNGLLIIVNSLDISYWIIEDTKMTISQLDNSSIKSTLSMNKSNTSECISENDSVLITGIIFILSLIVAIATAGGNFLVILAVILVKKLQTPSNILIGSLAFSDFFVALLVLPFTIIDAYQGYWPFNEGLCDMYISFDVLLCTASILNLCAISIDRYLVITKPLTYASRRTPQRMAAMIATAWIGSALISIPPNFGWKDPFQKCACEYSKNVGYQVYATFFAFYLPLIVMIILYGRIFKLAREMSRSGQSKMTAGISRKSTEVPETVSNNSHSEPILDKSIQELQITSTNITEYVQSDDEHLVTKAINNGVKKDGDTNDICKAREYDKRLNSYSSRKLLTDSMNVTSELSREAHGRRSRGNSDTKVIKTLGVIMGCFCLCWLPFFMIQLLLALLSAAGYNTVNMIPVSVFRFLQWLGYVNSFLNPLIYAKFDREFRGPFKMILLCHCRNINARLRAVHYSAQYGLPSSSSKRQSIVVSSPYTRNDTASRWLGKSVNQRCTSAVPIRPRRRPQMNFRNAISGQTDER", "experiment": "cell-based"}, "[3]": {"tested_on": "adult S. mansoni parasites", "experiment": "adult worm movement assay ex vivo", "parameters": "species or system Schistosoma mansoni", "details": "ex vivo; for EC50: Schistosoma mansoni, ± 95% confidence interval, read-out: EC50 for stimulation of adult schistosome movement"}, "immature S. mansoni": {"tested_on": "immature S. mansoni", "experiment": "movement of immature worms harvested 4 weeks post infection, ex vivo", "parameters": "species or system Schistosoma mansoni", "details": "male worms 4 weeks post infection", "source_text": "Figure 6. […] Figure 6—figure supplement 1. […] Scale = 50 µm. [drawing 7]"}, "Sj.5HTR": {"biological_target": "Sj.5HTR (Schistosoma japonicum, UniProt A0A346LTY2)", "sequence (A0A346LTY2 entry or part of it)": "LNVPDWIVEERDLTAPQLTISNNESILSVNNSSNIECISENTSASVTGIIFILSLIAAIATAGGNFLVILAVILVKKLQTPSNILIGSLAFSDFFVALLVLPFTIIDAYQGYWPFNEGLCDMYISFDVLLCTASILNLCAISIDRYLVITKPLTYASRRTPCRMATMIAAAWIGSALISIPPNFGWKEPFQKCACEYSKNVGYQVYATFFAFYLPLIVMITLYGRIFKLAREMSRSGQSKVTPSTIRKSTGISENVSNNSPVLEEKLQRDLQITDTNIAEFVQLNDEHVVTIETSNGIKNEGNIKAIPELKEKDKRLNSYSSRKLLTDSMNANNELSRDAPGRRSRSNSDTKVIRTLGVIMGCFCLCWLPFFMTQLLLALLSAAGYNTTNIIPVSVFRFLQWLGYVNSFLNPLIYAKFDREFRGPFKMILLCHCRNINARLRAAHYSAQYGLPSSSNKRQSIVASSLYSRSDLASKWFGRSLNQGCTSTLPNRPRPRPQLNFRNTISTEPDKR", "experiment": "cell-based"}, "liver signaling pathways": {"tested_on": "liver signaling pathways", "experiment": "Ingenuity Pathway Analysis of transcripts differentially expressed in drug treated livers relative to control infections", "assay_type": "in vivo, mouse"}, "[4]": {"tested_on": "S. mansoni (mature infection in Swiss Webster mice)", "experiment": "curative efficacy against mature infection in mice (survival, worm burden, egg counts, organ weights)", "details": "for reduction in intestinal egg burden: ergotamine 60 mg/kg twice daily or PZQ 50 mg/kg, 42–49 days p.i.; for effect on hepatosplenomegaly: one week treatment starting at 42 days p.i."}, "[5]": {"tested_on": "immature S. mansoni (infection in mice)", "experiment": "curative efficacy against immature infection in mice (dosing weeks 3-4 post infection)", "details": "dosing 3–4 weeks post infection, worm burden at 7 weeks; ERG 60 mg/kg, PZQ 50 mg/kg"}, "human 5-HT2B receptor": {"tested_on": "human 5-HT2B receptor", "parameters": "method as in Chan et al., 2017", "details": "contracts host mesenteric vessels; ref Chan et al., 2017; cited from earlier work"}, "Sm.5HTRL [6]": {"biological_target": "T1, Sm.5HTRL"}, "[7]": {"tested_on": "forskolin evoked cAMP production in HEK293 cells lacking Sm.5HTRL", "experiment": "counter-screen of antagonist hits: forskolin evoked cAMP production in parental reporter line", "assay_type": "cell-based"}, "[8]": {"tested_on": "liver of S. mansoni infected mice", "experiment": "liver histology and immunohistochemistry of infected drug treated mice", "details": "ergotamine 60 mg/kg"}, "[9]": {"tested_on": "S. mansoni (mature infection in Swiss Webster mice)", "experiment": "hepatic shift assay in infected mice", "details": "intraperitoneal, sacrificed three hours later; dose not given"}},
  "data": [
    {"compound": "NCCc1c[nH]c2ccc(O)cc12", "note": "[5-HT, serotonin]", "values": [
      {"measurement": "reduction of egg laying ex vivo", "setting": "[1]; 100 µM, five days", "result": "82.4 ± 2.2", "unit": "% reduction"},
      {"measurement": "EC50", "setting": "Sh.5HTR; receptor transiently transfected into stable HEK293 cAMP reporter line, read-out: EC50 of cAMP luminescence response", "result": "3.6 ± 0.3", "unit": "nM"},
      {"measurement": "EC50", "setting": "Sm.5HTRL [2]", "result": "76 ± 1", "unit": "nM"},
      {"measurement": "fold induction at 1 µM", "setting": "Sm.5HTRL [2]; HEK293, read-out: elevation in luminescence values (fold increase)", "result": "70 to 110"},
      {"measurement": "EC50", "setting": "[3]", "result": "51600 ± 3000", "unit": "nM"},
      {"measurement": "effect on adult worm movement", "setting": "[3]; 5-HT at 200 µM", "result": "increased worm movement"},
      {"measurement": "effect on movement of juvenile worms", "setting": "immature S. mansoni", "result": "stimulated movement of juvenile worms"},
      {"measurement": "EC50", "setting": "Sj.5HTR", "result": "3 ± 0.3", "unit": "nM"}
    ]},
    {"compound": "O=C(C1CCCCC1)N1CC(=O)N2CCc3ccccc3C2C1", "note": "(stereo not drawn) [PZQ, praziquantel]", "values": [
      {"measurement": "effect on gene products associated with HSC activation", "setting": "liver signaling pathways", "result": "little to no effect"},
      {"measurement": "lethality through 15 weeks", "setting": "[4]; PZQ 50 mg/kg for one week from 42 days p.i.", "result": "no observed lethality"},
      {"measurement": "reduction in intestinal egg burden", "setting": "[4]", "result": "99.9 ± 0.1", "unit": "%"},
      {"measurement": "effect on hepatosplenomegaly", "setting": "[4]", "result": "did not prevent spleen and liver enlargement"},
      {"measurement": "effect on immature infection", "setting": "[5]", "result": "lack of effect"}
    ]},
    {"compound": "O=C(C1CCCCC1)N1CC(=O)N2CCc3ccccc3[C@@H]2C1", "note": "[R-PZQ]", "values": [
      {"measurement": "type of activity at human 5-HT2B receptor", "setting": "human 5-HT2B receptor", "result": "partial agonist"}
    ]},
    {"compound": "C[C@@H]1CC[C@@]2(OC1)O[C@H]1[C@@H](O)[C@H]3[C@@H]4CC[C@H]5C[C@@H](O[C@@H]6O[C@H](CO)[C@H](O[C@@H]7O[C@H](CO)C(O)[C@H](O[C@@H]8OC[C@@H](O)[C@H](O)[C@H]8O)[C@H]7O[C@@H]7O[C@H](CO)[C@H](O)[C@H](O[C@@H]8O[C@H](CO)[C@@H](O)[C@H](O)[C@H]8O)[C@H]7O)[C@H](O)[C@H]6O)[C@H](O)C[C@]5(C)[C@H]4CC[C@]3(C)[C@H]1[C@@H]2C", "note": "(stereo partly drawn) [ST069321]", "values": [
      {"measurement": "(+) Sm.5HTR 5-HT response (% of DMSO)", "setting": "Sm.5HTRL [6]", "result": "0.1068 % of DMSO"},
      {"measurement": "(-) Sm.5HTR Forskolin response (% of DMSO)", "setting": "[7]", "result": "0.15 % of DMSO"}
    ]},
    {"compound": "CN1C[C@H](C(=O)N[C@]2(C)O[C@@]3(O)[C@@H]4CCCN4C(=O)[C@H](Cc4ccccc4)N3C2=O)C=C2c3cccc4[nH]cc(c34)C[C@H]21", "note": "[ergotamine, Ergotamine]", "values": [
      {"measurement": "morphology of eggs laid by treated worms", "setting": "[1]; 1 µM", "result": "often small and deformed"},
      {"measurement": "Emax", "setting": "Sh.5HTR; HEK293, maximal cAMP response relative to 5-HT", "result": "96 ± 5", "unit": "%"},
      {"measurement": "type of activity at schistosome 5-HTRs", "setting": "Sm.5HTRL [6]", "result": "full agonists"},
      {"measurement": "granuloma formation and fibrosis in liver sections", "setting": "[8]", "result": "decreased granuloma formation and fibrosis"},
      {"measurement": "hepatic microvesicular steatosis / microvascular damage", "setting": "[8]; H and E staining", "result": "not observed"},
      {"measurement": "percentage of worms in the liver", "setting": "[9]", "result": "75.1 ± 16.9", "unit": "%"},
      {"measurement": "effect on gene products associated with HSC activation", "setting": "liver signaling pathways", "result": "down-regulated gene products associated with HSC activation"},
      {"measurement": "Emax", "setting": "Sm.5HTRL [2]; HEK293", "result": "95 ± 4", "unit": "%"},
      {"measurement": "EC50", "setting": "[3]", "result": "97.8 ± 31.6", "unit": "nM"},
      {"measurement": "effect on movement of juvenile worms", "setting": "immature S. mansoni", "result": "stimulated movement of juvenile worms"},
      {"measurement": "worm burden", "setting": "[4]; 60 mg/kg twice daily 42–49 days p.i., control 28 ± 8", "result": "9 ± 6", "unit": "worm pairs per mouse"},
      {"measurement": "reduction of worm burden", "setting": "[4]; 60 mg/kg twice daily 42–49 days p.i., p<0.002", "result": "~ 65%"},
      {"measurement": "reduction of infection-promoted increase in spleen mass", "setting": "[4]; 60 mg/kg twice daily 42–49 days p.i., relative to vehicle treated controls", "result": "55.8 ± 14.0", "unit": "%"},
      {"measurement": "reduction in intestinal egg burden", "setting": "[4]", "result": "96.3 ± 1.2", "unit": "%"},
      {"measurement": "effect on hepatosplenomegaly", "setting": "[4]", "result": "prevented hepatosplenomegaly"},
      {"measurement": "Emax", "setting": "Sj.5HTR; HEK293", "result": "114 ± 3", "unit": "%"},
      {"measurement": "effect on immature infection", "setting": "[5]", "result": "did not resolve infections"}
    ]}
  ]
}
